This passage reports IC50 and Activity results from ChEMBL document CHEMBL1147225, “Tricin from a malagasy connaraceous plant with potent antihistaminic activity” (J Nat Prod, 2003).

In one data set the test system is RBL-2H3. Kind of data set: Antihistaminic activity in rat RBL2H3 cells assessed as inhibition of DNP-BSA-induced beta-hexosaminidase release preincubated for 10 mins before DNP-BSA challenge. The format is functional, cell-based.
Data set [1] is described as follows: Cytotoxicity against rat RBL2H3 cells at 500 uM by optical microscope. The conditions noted are these: rbl-2h3, 500 µM. The format is cell-based.

Structures are written as SMILES. pIC50: −log10 of the molar value. Some results are limits rather than exact numbers.

In the case of `COc1cc(-c2cc(=O)c3ccccc3o2)cc(OC)c1O`, the negative-log IC50 (pIC50) in the data set on RBL-2H3 was 4.01. In data set [1], the Activity result is listed as “Non-toxic”.
In the same order, the values of `COc1c(OC)c(OC)c2c(=O)cc(-c3ccc(O)c(O)c3)oc2c1OC` are 3.69 and “Non-toxic”.
With `O=c1cc(-c2cc([N+](=O)[O-])cc([N+](=O)[O-])c2)oc2cc(O)cc(O)c12`, the negative-log IC50 (pIC50) in the data set with RBL-2H3 is less than 3.30. Moreover, the Activity entry in data set [1] is recorded as “Non-toxic”.
The corresponding values for `COc1cc(OC)cc(-c2cc(=O)c3c(O)cc(O)cc3o2)c1` are less than 3.30 and “Non-toxic”.
As to `COc1cc(-c2oc3cc(O)cc(O)c3c(=O)c2C(C)=O)cc(OC)c1O`, in the data set on RBL-2H3, the pIC50 was 3.67. The Activity entry in data set [1] was “Non-toxic”.
The corresponding values for `COc1cc(-c2cc(=O)c3c(O)cc(O)cc3o2)cc(OC)c1OC` are 3.37 and “Non-toxic”.
On to `COc1ccc(-c2cc(=O)c3c(O)cc(O)cc3o2)cc1OC`, for which the pIC50 with RBL-2H3 is less than 3.30. Moreover, the Activity entry in data set [1] is on record as “Non-toxic”.
Take `COc1ccc(-c2cc(=O)c3ccccc3o2)cc1OC` [3',4'-DIMETHOXYFLAVONE]: the pIC50 in the data set with RBL-2H3 is less than 3.30. Also, in data set [1], the Activity result is “Non-toxic”.
In the same order, the values of `COc1cc(OC)cc(-c2cc(=O)c3ccccc3o2)c1` [3',5'-DIMETHOXYFLAVONE] are less than 3.30 and “Non-toxic”.
Take `O=c1cc(-c2ccc(O)cc2)oc2cc(O)cc(O)c12` [APIGENIN]: the pIC50 in the data set on RBL-2H3 is 3.91. Further, in data set [1], the Activity result is given as “Non-toxic”.
In the same order, the values of `O=c1cc(-c2ccccc2)oc2cc(O)c(O)c(O)c12` [BAICALEIN] are 3.75 and “Non-toxic”.
On to `O=c1cc(-c2ccccc2)oc2cc(O)cc(O)c12` [CHRYSIN], for which the pIC50 in the data set with RBL-2H3 was less than 3.30. Moreover, in data set [1], the Activity entry is listed as “Non-toxic”.
In the same order, the values of `COc1cc2oc(-c3ccc(O)cc3)cc(=O)c2c(O)c1OC` [CIRSIMARITIN] are 3.79 and “Non-toxic”.
In the case of `O=C(O)c1cc(=O)c2c(OCC(O)COc3cccc4oc(C(=O)O)cc(=O)c34)cccc2o1` [CROMOLYN SODIUM], in the data set on RBL-2H3, the pIC50 was 2.81.
With `O=c1cc(-c2ccc(O)c(O)c2)oc2cc(O)cc(O)c12` [LUTEOLIN], the pIC50 in the data set on RBL-2H3 is 4.24. Also, in data set [1], the Activity entry is “Non-toxic”.
`O=c1cc(-c2ccc(O)cc2)oc2cc(O)c(O)c(O)c12` [SCUTELLAREIN]: the pIC50 in the data set with RBL-2H3 was 4.17. Besides, the Activity result in data set [1] is “Non-toxic”.
In the same order, the values of `COc1c(OC)c(O)c2c(=O)cc(-c3ccc(O)c(O)c3)oc2c1OC` [SIDERITIFLAVONE] are less than 3.30 and “Non-toxic”.
As to `COc1ccc(-c2cc(=O)c3c(OC)c(OC)c(OC)c(OC)c3o2)cc1` [TANGERETIN], the pIC50 in the data set on RBL-2H3 was less than 3.30. Also, in data set [1], the Activity entry is “Non-toxic”.
For the compound `COc1cc(-c2cc(=O)c3c(O)cc(O)cc3o2)cc(OC)c1O` [TRICIN], in the data set with RBL-2H3, the pIC50 was 5.32. Besides, the Activity entry in data set [1] is on record as “Non-toxic”.
